Measurements published in US20050222036A1, “Peptide compositions with effects on blood glucose” (priority 2000, published 2005).
Marks after values point to notes of the source that are not given here.

Experiments:
[1] = Blood glucose in fasting rats; assay type: in vivo, rat; conditions: 24 hour fasting rats, 100 ug intraperitoneal; for Blood glucose mean ± s.e.m.: 20 minutes after administration
Procedure: Gilatide administered intraperitoneally (IP), but not intranasally (IN), lowers blood glucose levels in rats fasted for 24 hours. […] Gilatide's effect on blood glucose in fasting rats was measured. Groups of 24 hour fasting rats (n=5 or 6) were delivered either vehicle, insulin, Gilatide, GLP-1, exendin-4, Insulin A-chain, Insulin B-chain or C-peptide. Glucose levels were measured 20 minutes following intraperitoneal administration. All peptides were given at a dose of 100 ug (Table 2). In this experiment, insulin, the positive control, led to a 44% drop in blood glucose. Gilatide led to a significant drop in glucose level by 14%.

rats [2] = test: Passive avoidance (PA), associative learning in rats; assay type: in vivo, rat
Procedure: Passive avoidance was performed in an apparatus (MED Associates Inc., St. Albans, Vt.) consisting of one dark chamber and one light chamber that can be divided by a guillotine door. The training procedure was executed as previously described (N. Venable et al. Psychopharmacology 100, 215 (1990)). Rats were administered a 1.0 mA shock for 3 sec, mice a 0.5 mA shock for 5 sec. Retention tests were performed either at 1, 3 or 7 days post-pairing. Maximum latency was 600 sec for rats, 300 sec for mice.
In the instant invention, rats were pretreated intranasally with one of three dose levels (10 μg/kg, 30 μg/kg, or 60 μg/kg) of Gilatide in 5% β cyclodextrin or an octamer having a sequence homology to CRH and urocortin. […] A control group received vehicle (5% cyclodextrin) alone. With three dose levels for each of the peptides studied, a total of seven (7) groups were employed, each group having 5-8 rats, for a total of 50 rats tested. On the first day of conditioning, the pretreated rats (N=7-13) were administered a single foot shock trial (0.1 mA over 3 seconds) after entering the dark compartment. The animals were replaced in the test apparatus and latencies again were measured on Days 1, 3, 7, and 21 following the aversive stimulus.
Rats were pretreated with either […] 10 μg/kg Gilatide in 5% β cyclodextrin or vehicle by one of three routes of administration: intranasally, subcutaneously, or intraperitoneally. On Day 0, the rats (N=7-13) were conditioned by administration of a single foot shock trial (0.1 mA over 3 seconds) after entry into the dark compartment of a passive avoidance apparatus (the same passive avoidance chamber used in the first series of experiments). At 24 hours (Day 1) following the initial test, and delivery of the single shock, the animals were replaced in the test apparatus and latency again measured. (FIG. 7)
Rates (N=5-10) were pretreated intranasally with one of five dose levels (0.1 μg/kg, 1 μg/kg, 3 μg/kg, 30 μg/kg or 60 μg/kg) of Gilatide in 5% β cyclodextrin, vehicle (5% cyclodextrin), or Nicotine (0.3 mg/kg, subcutaneously). On Day 0, the rats were conditioned by administration of a single foot shock trial (0.1 mA over 3 seconds) after entry into the dark compartment of a passive avoidance apparatus (the same passive avoidance chamber used in the other experiments). The preconditioned rats were retested on Days 1, 3, 7, and 21.
The effect of Gilatide was tested on memory consolidation by administering the peptide after shock testing. Rats (N=7-13) were preconditioned by administering a single foot shock trial (0.1 mA over 3 seconds) after entering the dark compartment of a passive avoidance apparatus. Twenty (20) minutes after the conditioning session, one group of rats was administered 10 μg/kg of Gilatide intranasally (TRN-TXT). Another group of rats (TXT-DLY-TRN) was administered this same dose of Gilatide 24 hours after the conditioning session. Both treatment groups were returned to the test apparatus 24 hours following treatment and latencies were again measured. […] (FIG. 13)
The effects of Gilatide when used with or without an Exendin-4 antagonist were observed and measured. Rats (N=6-13) were pretreated with either 10 μg/kg or 20 μg/kg of Gilatide with or without an Exendin-4 antagonist (10 μg/kg). A control group was administered vehicle alone. The pretreated rats were conditioned on Day 0 by administration of a single foot shock trial (0.1 mA over 3 seconds) after entry into the dark compartment of a passive avoidance apparatus (the same passive avoidance chamber used in the other experiments). The preconditioned rats were retested on 24 hours later. […] (FIG. 14)
Twenty-four hours later the rats were returned to the apparatus and retested. […] (FIG. 15)

rats [3] = test: Contextual fear conditioning in rats; assay type: in vivo, rat; conditions: vs naïve and EGFP controls
Procedure: Fear conditioning was performed in a modified apparatus (MED Associates Inc., St. Albans, Vt.) housed in a sound attenuated cubicle. […] The animal was placed in the chamber and the occurrence of freezing behavior measured every 10 sec for 2 min before a shock was administered (rats, […], 2 sec; mice, 0.5 mA, 5 sec). Freezing behavior was measured again (for 5 min) the next day. The apparatus was cleaned with 1% acetic acid following conditioning of each animal.
To determine whether increasing GLP-1R levels in the hippocampus would enhance learning, rAAV vectors expressing control EGFP vector and GLP-1R were generated and injected into the hippocampus of rats. See Example 1(vi) for protocol. Three weeks following vector injection, robust hippocampal expression was obtained (data not shown) with transgene mRNA expression in the principal cell groups of the hippocampus. […] See Example 1 (vii) for protocol. A separate group of rats treated in the same manner was trained twice daily for 5 days in the MWM. […] The decrease in latency was not due to increased swimming speed (both GLP-1R and EGFP controls were approx. 23 cm/sec) nor stress effects (Table 4). Furthmore, the decreased latency was not due to a disruption in visual acuity and general locomotion and swimming ability, because rats from both groups located a visual platform in a similar manner (approx. 32±3 sec latency). […]

rats [4] = test: Morris Water Maze (MWM), spatial learning in rats; assay type: in vivo, rat; conditions: for acquisition of spatial learning: intranasal (arecoline s.c.), four trials
Procedure: Spatial learning was assessed using the Morris Water Maze (Morris et al. Nature, 1982, 297: 681). Information was relayed via a tracker (HSV Image, Hampton, UK) to a personal computer, which was quantified by a specialized computer program (Water 2020, Hampton, UK). The acquisition study was performed as described previously. Animals were anaesthetized with isofluorane then administered peptide intra-nasally 20 min before testing. Rats were given four training trials. 48 h after training, a retention test was performed: rats were allowed to find the hidden platform for one trial. Mice initially had six trials without treatment to habituate them to the procedure. The following day, they were administered vehicle or [Ser(2)]exendin(1-9) (SEQ ID NO:1) and trained for an additional four trials with the platform in a new location. For a retention test, mice were given one trial to locate the platform the next day. Latency to find the platform was considered a measure of retention of spatial learning.
(§1) The elevated plus maze consists of two open and two closed arms; time spent and the number of entries into open arms are indicators of neophobic anxiety in rats. The number of entries and total time spent in the open arms were tabulated over 5 min by an observer blind to the experimental condition. Animals falling off the apparatus were eliminated from the study. For the intracerebroventricular (i.c.v.) studies, rats were implanted with a cannula (22 gauge, Plastics One, Roanoke, Va.) into the left ventricle (AP 0.8 mm, ML 1.6 mm, DV 3.5 mm from dura) then allowed at least 3-4 days to recover. The peptides were infused in a total volume of 2 μl (1 μl min −1) 25 min before training with two trials per day for 5 days. The visual platform test was conducted after the last training trial on day 5 in a different location of the pool.
In another series of experiments, rats (N=15-16) were pretreated with either Gilatide (10 μg/kg, 30 μg/kg, or 60 μg/kg) or vehicle and then trained for four trials in a Morris Water Maze. Two days following training, the rats were retested. Latency to find a submerged platform in the Morris Water Maze paradigm was measured.
Clinically approved treatments for cognitive impairment act primarily on the cholinergic system. The effects of intranasal GLP-1 and [Ser(2)]exendin(1-9) were compared with that of the cholinergic agonist arecoline on spatial learning in a modified version of the MWM (Setlow, B. et al. Learn. Mem, 2000. 7: 187). Rats were first administered vehicle, [Ser(2)]exendin(1-9), GLP-1 or arecoline, and trained for four trials to locate a submerged platform. They were then tested in a single retention trial 48 hours after initial training. There were no differences between treatments in acquisition (FIG. 10A).

rats [5] = test: Elevated plus maze test (anxiogenic effects); assay type: in vivo, rat; design: TIME Open Arm / TIME Closed Arm: unit not given here
Procedure: as §1

rats [6] = test: Elevated plus maze test (anxiogenic effects); assay type: in vivo, rat; design: TIME Open Arm / TIME Closed Arm: unit not given here; conditions: 10 ng ICV
[7] = tested on: rat insulinoma cell line expressing the GLP-1R (RINm5f); test: ELISA of culture media for insulin, RINm5f cells; assay type: cell-based; conditions: 10 nM peptide, 6 hours
Procedure: To confirm biologic activity of Gilatide peptides or analogs, a rat insulinoma cell line expressing the GLP-1R (RINm5f) can be cultured and incubated the Gilatide peptide or analogs followed by an ELISA study as described below.
To confirm biological activity of synthesized Gilatide peptide ([Ser(2)]exendin(1-9)) that was synthesized with a stearic acid residue added to the N-terminus, GLP-1 or [Ser(2)]exendin(1-9) (10 nM) were incubated with the cultured rat insulinoma cell line expressing the GLP-1R (RINm5f) in the presence or absence of the GLP-1R antagonist, exendin(9-39) (10 nM). Rat insulinoma cells (RINm5f) were cultured in 24 well plates and incubated in serum-free medium for 1 hour before treatment. The GLP-1 peptide antagonist exendin (9-39) (10 nM) was added 1 hour prior to GLP-1 (7-36) or [Ser(2)]exendin(1-9) (10 nM). Cells were then incubated for 6 hours in the presence of either GLP-1 or [Ser(2)]exendin(1-9). Media were then removed and assayed for insulin concentrations via ELISA (Pennisula Labs, San Carlos, Calif.).

[8] = Blood glucose in fasting rats; assay type: in vivo, rat; conditions: for blood glucose: intra-nasal
[9] = i.c.v., GLP-1 10 ng and 100 ng, [Ser(2)]exendin(1-9) 10 ng

## Insulin B chain: inactive insulin fragment
[1]
  Blood glucose mean ± s.e.m.: 100 ± 4.9 mg/dL

## NC(=O)CC[C@@H]1NC(=O)[C@H](Cc2ccccc2)NC(=O)[C@H](Cc2ccc(O)cc2)NC(=O)[C@@H](N)CSSC[C@@H](C(=O)N2CCC[C@H]2C(=O)N[C@@H](CCCN=C(N)N)C(=O)NCC(N)=O)NC(=O)[C@H](CC(N)=O)NC1=O [vasopressin]
Rats [2]; [9]
  latency in PA: enhanced latency
Rats [2]; intranasal, [Ser(2)]exendin(1-9) 3, 10, 30 μg, vasopressin 0.3 μg (FIG. 9A)
  latency in the PA test: increased latency

## COC(=O)C1=CCCN(C)C1 [arecoline]
Rats [3]
  freezing behavior in contextual fear conditioning: enhanced freezing behavior
Rats [4]; modified MWM, 48 hours after training, [Ser(2)]exendin(1-9) 30 μg intranasal, arecoline 0.3 mg s.c.
  latency to locate the submerged platform in the retention trial: significantly reduced the latency
Rats [4]; modified MWM
  acquisition of spatial learning: did not affect acquisition of spatial learning

## CN1CCCC1c1cccnc1 (stereo not drawn) [nicotine]
Rats [2]; 0.3 mg/kg subcutaneously, 24 hours
  latency in PA: modestly increased latencies

## HAEGTFTSDVSSVLEGQAAKEFIAWLVKGR [GLP-1, glucagon-like peptide 1]
Rats [5]; 10 μg IN
  ENTRIES Closed Arm: 4.8 ± 1.0
  ENTRIES Open Arm: 1.11 ± 0.3
  TIME Closed Arm: 171.8 ± 10^+
  TIME Open Arm: 11.6 ± 4
Rats [5]; 30 μg IN
  ENTRIES Closed Arm: 2.1 ± 0.4
  ENTRIES Open Arm: 1.33 ± 0.4
  TIME Closed Arm: 197.2 ± 18
  TIME Open Arm: 22.1 ± 10
Rats [5]; intranasal
  anxiogenic effect, time spent in closed arms: anxiogenic
[1]
  Blood glucose mean ± s.e.m.: 89.5 ± 1.1 mg/dL
Rats [2]; [9]
  latency in PA: enhanced latency
Rats [4]; 100 ng i.c.v.
  latency (not shown): decrease latency
Rats [4]; i.c.v., vs control rats
  distance traveled to locate the platform: significantly reduced distance traveled
Rats [4]; i.c.v., vs vehicle
  swimming speed: decrease swimming speed
Rats [4]; modified MWM
  acquisition of spatial learning: did not affect acquisition of spatial learning
Rats [6]
  ENTRIES Closed Arm: 2.7 ± 0.5
  ENTRIES Open Arm: 0.7 ± 0.4
  TIME Closed Arm: 198.3 ± 29
  TIME Open Arm: 16.7 ± 11
[7]
  insulin release into culture media: stimulated insulin release
[8]; 3 μg
  blood glucose: 73.8 ± 2.2 P < 0.05 mg/dl
[8]; 10 μg
  blood glucose: 70.6 ± 2.5 P < 0.01 mg/dl
[8]; 30 μg
  blood glucose: 71.2 ± 2.1 P < 0.05 mg/dl
[8]; intranasal
  fasting blood glucose levels: lowered fasting blood glucose levels

## Cc1ncc2n1-c1ccc(Cl)cc1C(c1ccccc1F)=NC2 [Midazolam]
Rats [5]; 1.5 mg/kg IP
  ENTRIES Closed Arm: 5.1 ± 0.5
  ENTRIES Open Arm: 6.6 ± 0.7
  TIME Closed Arm: 89.2 ± 15
  TIME Open Arm: 141.3 ± 18

## C peptide
[1]
  Blood glucose mean ± s.e.m.: 90.3 ± 8.9 mg/dL

## C1CCc2nnnn2CC1 [PTZ]
Rats [5]; 20 mg/kg IP
  ENTRIES Closed Arm: 1.6 ± 0.4
  ENTRIES Open Arm: 0***
  TIME Closed Arm: 249.6 ± 13.32
  TIME Open Arm: 0***

## Insulin
[1]; 20 minutes
  drop in blood glucose: 44%
[1]
  Blood glucose mean ± s.e.m.: 50.7 ± 8.2 (P < 0.01) mg/dl

## COc1cccc(-c2cc(=O)c3ccccc3o2)c1N [PD98059]
Rats [2]; PD98059 5 μg i.c.v. before (PRE) training
  effect on enhancement of associative learning by intranasal [Ser(2)]exendin(1-9): not when given before (PRE) training
Rats [2]; PD98059 5 μg i.c.v. immediately after training (POST)
  effect on enhancement of associative learning by intranasal [Ser(2)]exendin(1-9): completely blocked

## Insulin A chain: inactive insulin fragment
[1]
  Blood glucose mean ± s.e.m.: 90.3 ± 4.7 mg/dL
